# Measured values: ChEMBL document CHEMBL2151027, “BACE Inhibitors: Potential Treatment of Alzheimer's Disease, Dementia, and Related Neurodegenerative Disorders (B): 3-Amino-4-fluoro-1H-isoindol Derivatives: Patent Highlight” (ACS Med Chem Lett, 2012)
# Key:
# [1] = target: T1, Beta-secretase 1 (Homo sapiens, UniProt P56817); experiment: Inhibition of BACE1 by secreted AAPbeta release assay
# [2] = target: T1, Beta-secretase 1; experiment: Inhibition of BACE1 by diluted TR-FRET assay
# T1 sequence (P56817 whole entry): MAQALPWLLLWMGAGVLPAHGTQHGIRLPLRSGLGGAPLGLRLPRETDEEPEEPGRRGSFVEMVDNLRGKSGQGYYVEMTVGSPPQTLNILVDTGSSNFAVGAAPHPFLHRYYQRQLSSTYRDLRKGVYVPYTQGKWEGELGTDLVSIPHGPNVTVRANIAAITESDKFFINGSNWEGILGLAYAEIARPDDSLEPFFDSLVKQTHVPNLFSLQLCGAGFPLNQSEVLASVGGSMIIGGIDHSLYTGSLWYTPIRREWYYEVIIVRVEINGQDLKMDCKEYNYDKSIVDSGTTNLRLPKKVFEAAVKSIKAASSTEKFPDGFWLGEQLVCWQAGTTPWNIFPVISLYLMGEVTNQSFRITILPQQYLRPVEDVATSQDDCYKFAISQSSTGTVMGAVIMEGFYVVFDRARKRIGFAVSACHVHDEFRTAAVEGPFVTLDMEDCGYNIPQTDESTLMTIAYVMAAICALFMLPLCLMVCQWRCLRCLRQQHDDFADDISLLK
IC50 [1] [nM],IC50 [2] [nM],Compound
4,6,CC#Cc1cncc(-c2cccc([C@@]3(c4cc(C(F)F)c(=O)n(CC)c4)N=C(N)c4c(F)cccc43)c2)c1
2,–,CC#Cc1ccnc(-c2cccc([C@@]3(c4cc(C)c(=O)n(CC)c4)N=C(N)c4c(F)cccc43)c2)c1
2,8,CCn1cc([C@]2(c3cccc(-c4cncc(C#N)c4)c3)N=C(N)c3c(F)cccc32)cc(C)c1=O
